The record followed here is US9725462B2, “Pyridopyrimidine derivatives as protein kinase inhibitors” (Merck Patent GmbH, priority 2012, dated 2017).

This assay has as its target T1, SYK (Homo sapiens, UniProt P43405).
T1 construct: 2.5 nM SYK, 400 nM Biotin-Aha-Aha-KEDPDYEWPSAKK
Kind of assay: SYK Flash Plate Assay (enzyme assay). The format is biochemical. The settings on record: Syk inhibition. An excerpt:
The following abbreviations refer respectively to the definitions below: • aq (aqueous), h (hour), g (gram), L (liter), mg (milligram), MHz (Megahertz), min. (minute), mm (millimeter), mmol (millimole), mM (millimolar), m.p. (melting point), eq (equivalent), mL (milliliter), L (microliter), ACN (acetonitrile), AcOH (acetic acid), CDCl3 (deuterated chloroform), CD3OD (deuterated methanol), CH3CN (acetonitrile), c-hex (cyclohexane), DCC (dicyclohexyl carbodiimide), DCM (dichloromethane), DIC (diisopropyl carbodiimide), DIEA (diisopropylethyl-amine), DMF (dimethylformamide), DMSO (dimethylsulfoxide), DMSO-d6 (deuterated dimethylsulfoxide), EDC (1-(3-dimethyl-amino-propyl)-3-ethylcarbodiimide), ESI (Electro-spray ionization), EtOAc (ethyl acetate), Et2O (diethyl ether), EtOH (ethanol), HATU (dimethylamino-([1,2,3]triazolo[4,5-b]pyridin-3-yloxy)-methylene]-dimethyl-ammonium hexafluorophosphate), HPLC (High Performance Liquid Chromatography), i-PrOH (2-propanol), K2CO3 (potassium carbonate), LC (Liquid Chromatography), MeOH (methanol), MgSO4 (magnesium sulfate), MS (mass spectrometry), MTBE (Methyl tert-butyl ether), NaHCO3 (sodium bicarbonate), NaBH4 (sodium borohydride), NMM (N-methyl morpholine), NMR (Nuclear Magnetic Resonance), PyBOP (benzotriazole-1-yl-oxy-tris-pyrrolidino-phosphonium hexafluorophosphate), RT (room temperature), Rt (retention time), SPE (solid phase extraction), TBTU (2-(1-H-benzotriazole-1-yl)-1,1,3,3-tetramethyluromium tetrafluoro borate), TEA (triethylamine), TFA (trifluoroacetic acid), THF (tetrahydrofuran), TLC (Thin Layer Chromatography), UV (Ultraviolet). Description of the In Vitro Assays SYK Flash Plate Assay
The kinase assay is performed either as 384-well Flashplate assay (for e.g. Topcount measurement) or as 384-well Image-Flashplate assay (for LEADseeker measurement).
2.5 nM SYK, 400 nM Biotin-Aha-Aha-KEDPDYEWPSAKK
and 10 μM ATP (spiked with 0.3 μCi 33P-ATP/well) are incubated in a total volume of 50 μl (60 mM Hepes, 10 mM MgCl2, 1.2 mM Dithiothreitol, 0.02% Brij35, 0.1% BSA, pH 7.5) with or without test compound for 1 hours at 30° C. The reaction is stopped with 25 μl 200 mM EDTA. After 30 Min at 30° C. the liquid is removed and each well washed thrice with 100 μl 0.9% sodium chloride solution. Non-specific reaction is determined in presence of 0.1 μM Staurosporine. Radioactivity is measured with Topcount (when using Flashplates) or with LEADseeker (when using Image-Flashplates) respectively. Results (e.g. IC50-values) are calculated with program tools provided by the IT-department (e.g. Symyx Assay Explorer, Genedata Screener). In Vivo Assays CIA

Where only a bound is given, the exact number is not on record here.

The IC50 is the concentration that gives 50% inhibition. Lower therefore signals greater potency. `N[C@H]1CCCC[C@H]1Nc1ncc2cncc(-c3ccc4[nH]c(=O)[nH]c4c3)c2n1` [Compound A37, 5-[2-((1R,2S)-2-Amino-cyclohexylamino)-pyrido[4,3-d]pyrimidin-8-yl]-1,3-dihydro-benzimidazol-2-one] registered an IC50 of 1000 to 50000 nM.

With `N[C@H]1CCCC[C@H]1Nc1ncc2cncc(-c3c[nH]c4cnccc34)c2n1` [Compound A76], the IC50 was less than 100 nM.

Turning to `N[C@@H]1CCCC[C@@H]1Nc1ncc2cncc(-c3cc4ccc(F)cc4[nH]3)c2n1` (stereo in doubt) [Compound A42, (1S,2R)-N-[8-(6-Fluoro-1H-indol-2-yl)-pyrido[4,3-d]pyrimidin-2-yl]-cyclohexane-1,2-diamine], the IC50 lay within 1000 to 50000 nM.

The compound `N[C@H]1CCCC[C@H]1Nc1ncc2c(C(F)F)ncc(-c3c[nH]c4cc(C(F)(F)F)ccc34)c2n1` [Compound A82] gave an IC50 of less than 100 nM.

Regarding `Nc1ncc(-c2ccc(OC(F)(F)F)cc2)c2nc(N[C@@H]3CCCC[C@@H]3N)ncc12` (single isomer, unassigned) [Compound A14, N2-((cis)-2-Amino-cyclohexyl)-8-(4-trifluoromethoxy-phenyl)-pyrido[4,3-d]pyrimidine-2,5-diamine], the IC50 is 100 to 1000 nM.

Turning to `Cn1cc(-c2cnc(N)c3cnc(N[C@@H]4CCCC[C@@H]4N)nc23)cn1` (single isomer, unassigned) [Compound A1, N2-((cis)-2-Amino-cyclohexyl)-8-(1-methyl-1H-pyrazol-4-yl)-pyrido[4,3-d]-pyrimidine-2,5-diamine], the IC50 was less than 100 nM.

In the case of `N[C@@H]1CCCC[C@@H]1Nc1ncc2cncc(-c3cc4n(n3)CCOC4)c2n1` (stereo in doubt) [Compound A43, (1S,2R)-N-[8-(6,7-Dihydro-4H-pyrazolo[5,1-c][1,4]oxazin-2-yl)-pyrido[4,3-d]pyrimidin-2-yl]-cyclohexane-1,2-diamine], the IC50 lay in the range of 1000 to 50000 nM.

For `N#Cc1ccc2c(-c3cncc4cnc(N[C@@H]5CCCC[C@@H]5N)nc34)c[nH]c2c1` [Compound A45, 3-[2-((1R,2S)-2-Amino-cyclohexylamino)-pyrido[4,3-d]pyrimidin-8-yl]-1H-indole-6-carbonitrile], the half-inhibitory concentration (IC50) was less than 100 nM.

In turn, `Cn1cc(-c2cnc(N)c3cnc(NCCN)nc23)cn1` [Compound A6, N2-(2-Amino-ethyl)-8-(1-methyl-1H-pyrazol-4-yl)-pyrido[4,3-d]-pyrimidine-2,5-diamine] showed an IC50 of 1000 to 50000 nM.

As for `NC(=O)c1ccc2c(-c3cncc4cnc(N[C@@H]5CCCC[C@@H]5N)nc34)c[nH]c2c1` [Compound A77, 3-[2-((1R,2S)-2-amino-cyclohexylamino)-pyrido[4,3-d]pyrimidin-8-yl]-1H-indole-6-carboxylic acid amide], the IC50 was less than 100 nM.

Compound `N#Cc1ccc2[nH]c(-c3cnc(N)c4cnc(N[C@@H]5CCCC[C@@H]5N)nc34)cc2c1` (relative stereo) [Compound A23, 2-[5-Amino-2-((cis)-2-amino-cyclohexylamino)-pyrido[4,3-d]-pyrimidin-8-yl]-1H-indole-5-carbonitrile] returned a half-inhibitory concentration (IC50) of 100 to 1000 nM.

In turn, `FC1(CNc2ncc3cncc(-c4c[nH]c5cc(C(F)(F)F)ccc45)c3n2)CCCNC1` (single isomer, unassigned) [Compound A79, (3-fluoro-piperidin-3-ylmethyl)-[8-(6-trifluoromethyl-1H-indol-3-yl)-pyrido[4,3-d]pyrimidin-2-yl]-amine] showed a 50% inhibitory concentration (IC50) of 1000 to 50000 nM.

For the compound `N#Cc1ccc2c(-c3cnc(C(F)F)c4cnc(N[C@@H]5CCCC[C@@H]5N)nc34)c[nH]c2c1` [Compound A87, 3-[2-((1R,2S)-2-amino-cyclohexylamino)-5-difluoromethyl-pyrido[4,3-d]-pyrimidin-8-yl]-1H-indole-6-carbonitrile], the IC50 is less than 100 nM.

Consider `CN1CN(c2ncc3c(N)ncc(-c4cnn(C)c4)c3n2)[C@@H]2CCCC[C@@H]21` (single isomer, unassigned) [Compound A11, 2-((cis)-3-Methyl-octahydro-benzoimidazol-1-yl)-8-(1-methyl-1H-pyrazol-4-yl)-pyrido[4,3-d]pyrimidin-5-ylamine], for which the IC50 lay within 1000 to 50000 nM.

Regarding `N#Cc1ccc2c(-c3cncc4cnc(N[C@@H]5CCOC[C@@H]5N)nc34)c[nH]c2c1` [Compound A69, 3[2-((3R,4R)-3-Amino-tetrahydro-pyran-4-ylamino)-pyrido[4,3-d]pyrimidin-8-yl]-1H-indole-6-carbonitrile], the IC50 lay within 100 to 1000 nM.

Consider `NC1CCCCC1Nc1ncc2cncc(-c3c[nH]c4c(F)cccc34)c2n1` (stereo not drawn) [Compound A63, cis-N2-[8-(7-Fluoro-1H-indol-3-yl)pyrido[4,3-d]pyrimidin-2-yl]cyclohexane-1,2-diamine], for which the IC50 was less than 100 nM.

Turning to `COc1ccc2[nH]c(-c3cnc(N)c4cnc(N[C@@H]5CCCC[C@@H]5N)nc34)cc2c1` (relative stereo) [Compound A19, N2-(cis-2-Amino-cyclohexyl)-8-(5-methoxy-1H-indol-2-yl)-pyrido[4,3-d]pyrimidine-2,5-diamine], the IC50 is less than 100 nM.

In turn, `Cn1cc(-c2cnc(C(F)F)c3cnc(N[C@@H]4CCCC[C@@H]4N)nc23)cn1` [Compound A91, (1R,2S)—N-[5-difluoromethyl-8-(1-methyl-1H-pyrazol-4-yl)-pyrido-[4,3-d]pyrimidin-2-yl]-cyclohexane-1,2-diamine] came in with an IC50 of 100 to 1000 nM.

As for `COc1cccc2cc(-c3cnc(N)c4cnc(N[C@@H]5CCCC[C@@H]5N)nc34)[nH]c12` (relative stereo) [Compound A18, N2-(cis-2-Amino-cyclohexyl)-8-(7-methoxy-1H-indol-2-yl)-pyrido[4,3-d]pyrimidine-2,5-diamine], the IC50 was less than 100 nM.

Turning to `Cc1ncc(-c2c[nH]c3cc(C(F)(F)F)ccc23)c2nc(N[C@H]3CCCC[C@H]3N)ncc12` (single isomer, unassigned) [Compound A89], the IC50 was less than 100 nM.

The compound `Cn1cc(-c2cnc(N)c3cnc(N[C@H]4CCCC[C@H]4N)nc23)cn1` (single isomer, unassigned) [Compound A4, N2-((cis)-2-Amino-cyclohexyl)-8-(1-methyl-1H-pyrazol-4-yl)-pyrido[4,3-d]pyrimidine-2,5-diamine] showed an IC50 of 1000 to 50000 nM.

In turn, `N[C@H]1COCC[C@H]1Nc1ncc2cncc(-c3c[nH]c4ccccc34)c2n1` [Compound A68, (3R,4R)-N4-[8-(1H-Indol-3-yl)-pyrido[4,3-d]pyrimidin-2-yl]-tetrahydro-pyran-3,4-diamine] registered an IC50 of less than 100 nM.

`N#Cc1ccc2c(-c3cncc4cnc(NC5CCCCC5)nc34)c[nH]c2c1` [Compound A80, 3-(2-cyclohexylamino-pyrido[4,3-d]pyrimidin-8-yl)-1H-indole-6-carbonitrile]: the IC50 was 1000 to 50000 nM.

Regarding `CC1(C)CCOc2cc(-c3cncc4cnc(N[C@@H]5CCCC[C@@H]5N)nc34)ccc21` [Compound A29], the half-inhibitory concentration (IC50) lay within 1000 to 50000 nM.

Compound `CC(C)(C)c1ccc(-c2cnc(N)c3cnc(N[C@H]4CCCC[C@H]4N)nc23)cc1` (relative stereo) [Compound A7, N2-(cis-2-Amino-cyclohexyl)-8-(4-tert-butyl-phenyl)-pyrido[4,3-d]pyrimidine-2,5-diamine] yielded an IC50 of 1000 to 50000 nM.

`Cc1nn(C)cc1-c1cncc2cnc(N[C@@H]3CCCC[C@@H]3N)nc12` (relative stereo) [Compound A25, cis-N-[8-(1,3-Dimethyl-1H-pyrazol-4-yl)-pyrido[4,3-d]pyrimidin-2-yl]-cyclohexane-1,2-diamine] came in with an IC50 of 1000 to 50000 nM.

`Nc1ncc(-c2cccc(-n3nccn3)c2)c2nc(N[C@H]3CCCC[C@H]3N)ncc12` (relative stereo) [Compound A3, N2-(cis-2-Amino-cyclohexyl)-8-(3-[1,2,3]triazol-2-yl-phenyl)-pyrido[4,3-d]pyrimidine-2,5-diamine] gave an IC50 of 100 to 1000 nM.

The compound `Nc1ncc(-c2cc3ccccc3[nH]2)c2nc(N[C@@H]3CCCC[C@@H]3N)ncc12` (relative stereo) [Compound A10, N2-(cis-2-Amino-cyclohexyl)-8-(1H-indol-2-yl)-pyrido[4,3-d]pyrimidine-2,5-diamine] showed an IC50 of less than 100 nM.

With `Cc1ncc(-c2c[nH]c3cc(C(F)(F)F)ccc23)c2nc(N[C@@H]3CCCC[C@@H]3N)ncc12` (single isomer, unassigned) [Compound A88], the IC50 is 1000 to 50000 nM.
